{"source": "patent US20230295162A1", "about": "(EÖTVÖS LORÁND TUDOMÁNYEGYETEM, priority 2020, published 2023)", "key": {"[1]": {"tested_on": "Capan-1 (pancreas, adenocarcinoma) cells", "test": "Cell viability assay, CellTiter-Glo (Example 21)", "type": "cell-based, human", "conditions": "72 h treatment", "description": "(§1) Effect of the selected compounds on cancer cell viability was measured via CellTiter-Glo® luminescent cell viability assay (Promega, Madison, WI, USA) according to the manufacturer's instructions. Cells were plated onto a flat-bottomed, white 96 well plate (BRANDplates®, cat. no.: 781965). Density of the seeded cells was optimized based on their size and growth rate, as the follows: Panc-1:750 cells/well; DU 145, PC-3, Capan-1, MIA PaCa-2, SCC-25, FaDu and EBC-1: 1000 cells/well; LNCaP, Detroit 562, MDA-MB-231 and MDA-MB-453 1500 cells/well. […] After the treatment, the luminescence signal was recorded using a microplate reader (BioTek Synergy 2 Multi-Mode Reader, BioTek, Winooski, VT, USA). Dose-response curves were generated by GraphPad Prism 8.4.2. software using a non-linear regression model (variable slope, four parameters), (see FIGS. 12-51)."}, "[2]": {"tested_on": "Detroit 562 (pharynx, carcinoma) cells", "test": "Cell viability assay, CellTiter-Glo (Example 21)", "type": "cell-based, human", "conditions": "72 h treatment", "description": "as §1"}, "[3]": {"tested_on": "PC-3 (prostate, adenocarcinoma) cells", "test": "Cell viability assay, CellTiter-Glo (Example 21)", "type": "cell-based, human", "conditions": "72 h treatment", "description": "as §1"}, "[4]": {"tested_on": "EBC-1 (lung, squamous cell carcinoma) cells", "test": "Cell viability assay, CellTiter-Glo (Example 21)", "type": "cell-based, human", "conditions": "72 h treatment", "description": "as §1"}, "[5]": {"tested_on": "SCC-25 (tongue, squamous cell carcinoma) cells", "test": "Cell viability assay, CellTiter-Glo (Example 21)", "type": "cell-based, human", "conditions": "72 h treatment", "description": "as §1"}, "[6]": {"tested_on": "DU 145 (prostate, carcinoma) cells", "test": "Cell viability assay, CellTiter-Glo (Example 21)", "type": "cell-based, human", "conditions": "72 h", "description": "as §1"}, "[7]": {"tested_on": "MDA-MB-231 (breast, adenocarcinoma) cells", "test": "Cell viability assay, CellTiter-Glo (Example 21)", "type": "cell-based, human", "conditions": "72 h treatment", "description": "as §1"}, "[8]": {"tested_on": "LNCaP (prostate, carcinoma) cells", "test": "Cell viability assay, CellTiter-Glo (Example 21)", "type": "cell-based, human", "conditions": "72 h", "description": "as §1"}, "[9]": {"tested_on": "FaDu (pharynx, squamous cell carcinoma) cells", "test": "Cell viability assay, CellTiter-Glo (Example 21)", "type": "cell-based, human", "conditions": "72 h treatment", "description": "as §1"}, "[10]": {"tested_on": "MIA PaCa-2 (pancreas, carcinoma) cells", "test": "Cell viability assay, CellTiter-Glo (Example 21)", "type": "cell-based, human", "conditions": "72 h treatment", "description": "as §1"}, "[11]": {"tested_on": "MDA-MB-453 (breast, carcinoma) cells", "test": "Cell viability assay, CellTiter-Glo (Example 21)", "type": "cell-based, human", "conditions": "72 h treatment", "description": "as §1"}, "[12]": {"tested_on": "Panc-1 (pancreas, carcinoma) cells", "test": "Cell viability assay, CellTiter-Glo (Example 21)", "type": "cell-based, human", "conditions": "72 h treatment", "description": "as §1"}, "Panc-1 human cell line": {"tested_on": "Panc-1 human cell line", "test": "Cytotoxicity on Panc-1, xCELLigence SP, IC50 after 24 h, 48 h, 72 h and 96 h (Example 22)"}}, "note": "Where two headings read alike, the source gives them in different places.", "data": [{"smiles": "O=C1C2=C(CCN(Cc3cc(F)cc(F)c3)C2)N2CCN=C2N1Cc1ccc(Cl)cc1", "note": "[I/124, 4-(4-Chlorobenzyl)-7-(3,5-difluorobenzyl)-2,4,6,7,8,9-hexahydroimidazo[1,2-a]pyrido[3,4-e]pyrimidin-5(1H)-one]", "values": [{"measurement": "Capan-1 (pancreas, adenocarcinoma) cell viability (% of control)", "setting": "[1]; 3.7 nM", "value": "88.5 ± 1.8 % of control"}, {"measurement": "Capan-1 (pancreas, adenocarcinoma) cell viability (% of control)", "setting": "[1]; 11.1 nM", "value": "35.3 ± 3.1 % of control"}, {"measurement": "Capan-1 (pancreas, adenocarcinoma) cell viability (% of control)", "setting": "[1]; 100 nM", "value": "33.6 ± 1.1 % of control"}, {"measurement": "Capan-1 (pancreas, adenocarcinoma) cell viability (% of control)", "setting": "[1]; 300 nM", "value": "34.6 ± 2.4 % of control"}, {"measurement": "Detroit 562 (pharynx, carcinoma) cell viability (% of control)", "setting": "[2]; 3.7 nM", "value": "29.4 ± 4.9 % of control"}, {"measurement": "Detroit 562 (pharynx, carcinoma) cell viability (% of control)", "setting": "[2]; 11.1 nM", "value": "27.8 ± 3.6 % of control"}, {"measurement": "Detroit 562 (pharynx, carcinoma) cell viability (% of control)", "setting": "[2]; 100 nM", "value": "28.3 ± 3.6 % of control"}, {"measurement": "Detroit 562 (pharynx, carcinoma) cell viability (% of control)", "setting": "[2]; 300 nM", "value": "31.5 ± 3.7 % of control"}, {"measurement": "PC-3 (prostate, adenocarcinoma) cell viability (% of control)", "setting": "[3]; 3.7 nM", "value": "46.9 ± 4.2 % of control"}, {"measurement": "PC-3 (prostate, adenocarcinoma) cell viability (% of control)", "setting": "[3]; 11.1 nM", "value": "33.9 ± 3.3 % of control"}, {"measurement": "PC-3 (prostate, adenocarcinoma) cell viability (% of control)", "setting": "[3]; 100 nM", "value": "32.8 ± 3.2 % of control"}, {"measurement": "PC-3 (prostate, adenocarcinoma) cell viability (% of control)", "setting": "[3]; 300 nM", "value": "32.7 ± 14.4 % of control"}, {"measurement": "EBC-1 (lung, squamous cell carcinoma) cell viability (% of control)", "setting": "[4]; 3.7 nM", "value": "70.9 ± 8.3 % of control"}, {"measurement": "EBC-1 (lung, squamous cell carcinoma) cell viability (% of control)", "setting": "[4]; 11.1 nM", "value": "25.3 ± 0.7 % of control"}, {"measurement": "EBC-1 (lung, squamous cell carcinoma) cell viability (% of control)", "setting": "[4]; 100 nM", "value": "22.4 ± 0.5 % of control"}, {"measurement": "EBC-1 (lung, squamous cell carcinoma) cell viability (% of control)", "setting": "[4]; 300 nM", "value": "23.5 ± 1.3 % of control"}, {"measurement": "SCC-25 (tongue, squamous cell carcinoma) cell viability (% of control)", "setting": "[5]; 3.7 nM", "value": "47.2 ± 5.8 % of control"}, {"measurement": "SCC-25 (tongue, squamous cell carcinoma) cell viability (% of control)", "setting": "[5]; 11.1 nM", "value": "34.3 ± 2.0 % of control"}, {"measurement": "SCC-25 (tongue, squamous cell carcinoma) cell viability (% of control)", "setting": "[5]; 100 nM", "value": "37.5 ± 1.4 % of control"}, {"measurement": "SCC-25 (tongue, squamous cell carcinoma) cell viability (% of control)", "setting": "[5]; 300 nM", "value": "42.3 ± 5.2 % of control"}, {"measurement": "DU 145 cell viability", "setting": "[6]; 3.7 nM", "value": "10.0 ± 1.4 % of control"}, {"measurement": "DU 145 cell viability", "setting": "[6]; 11.1 nM", "value": "7.0 ± 1.1 % of control"}, {"measurement": "DU 145 cell viability", "setting": "[6]; 100 nM", "value": "8.0 ± 1.0 % of control"}, {"measurement": "DU 145 cell viability", "setting": "[6]; 300 nM", "value": "7.7 ± 1.8 % of control"}, {"measurement": "MDA-MB-231 (breast, adenocarcinoma) cell viability (% of control)", "setting": "[7]; 3.7 nM", "value": "82.4 ± 7.2 % of control"}, {"measurement": "MDA-MB-231 (breast, adenocarcinoma) cell viability (% of control)", "setting": "[7]; 11.1 nM", "value": "59.4 ± 4.5 % of control"}, {"measurement": "MDA-MB-231 (breast, adenocarcinoma) cell viability (% of control)", "setting": "[7]; 100 nM", "value": "55.9 ± 5.3 % of control"}, {"measurement": "MDA-MB-231 (breast, adenocarcinoma) cell viability (% of control)", "setting": "[7]; 300 nM", "value": "54.2 ± 2.4 % of control"}, {"measurement": "LNCaP cell viability", "setting": "[8]; 3.7 nM", "value": "20.8 ± 2.0 % of control"}, {"measurement": "LNCaP cell viability", "setting": "[8]; 11.1 nM", "value": "13.3 ± 1.6 % of control"}, {"measurement": "LNCaP cell viability", "setting": "[8]; 100 nM", "value": "12.7 ± 0.8 % of control"}, {"measurement": "LNCaP cell viability", "setting": "[8]; 300 nM", "value": "13.0 ± 0.7 % of control"}, {"measurement": "FaDu (pharynx, squamous cell carcinoma) cell viability (% of control)", "setting": "[9]; 3.7 nM", "value": "45.6 ± 20.7 % of control"}, {"measurement": "FaDu (pharynx, squamous cell carcinoma) cell viability (% of control)", "setting": "[9]; 11.1 nM", "value": "26.1 ± 6.2 % of control"}, {"measurement": "FaDu (pharynx, squamous cell carcinoma) cell viability (% of control)", "setting": "[9]; 100 nM", "value": "24.5 ± 4.6 % of control"}, {"measurement": "FaDu (pharynx, squamous cell carcinoma) cell viability (% of control)", "setting": "[9]; 300 nM", "value": "24.7 ± 5.0 % of control"}, {"measurement": "MIA PaCa-2 (pancreas, carcinoma) cell viability (% of control)", "setting": "[10]; 3.7 nM", "value": "33.5 ± 12.1 % of control"}, {"measurement": "MIA PaCa-2 (pancreas, carcinoma) cell viability (% of control)", "setting": "[10]; 11.1 nM", "value": "18.9 ± 7.1 % of control"}, {"measurement": "MIA PaCa-2 (pancreas, carcinoma) cell viability (% of control)", "setting": "[10]; 100 nM", "value": "18.7 ± 7.1 % of control"}, {"measurement": "MIA PaCa-2 (pancreas, carcinoma) cell viability (% of control)", "setting": "[10]; 300 nM", "value": "18.0 ± 7.3 % of control"}, {"measurement": "MDA-MB-453 (breast, carcinoma) cell viability (% of control)", "setting": "[11]; 3.7 nM", "value": "37.9 ± 3.2 % of control"}, {"measurement": "MDA-MB-453 (breast, carcinoma) cell viability (% of control)", "setting": "[11]; 11.1 nM", "value": "33.5 ± 1.8 % of control"}, {"measurement": "MDA-MB-453 (breast, carcinoma) cell viability (% of control)", "setting": "[11]; 100 nM", "value": "31.2 ± 2.2 % of control"}, {"measurement": "MDA-MB-453 (breast, carcinoma) cell viability (% of control)", "setting": "[11]; 300 nM", "value": "30.9 ± 1.4 % of control"}, {"measurement": "Panc-1 (pancreas, carcinoma) cell viability (% of control)", "setting": "[12]; 3.7 nM", "value": "99.7 ± 3.0 % of control"}, {"measurement": "Panc-1 (pancreas, carcinoma) cell viability (% of control)", "setting": "[12]; 11.1 nM", "value": "56.9 ± 0.2 % of control"}, {"measurement": "Panc-1 (pancreas, carcinoma) cell viability (% of control)", "setting": "[12]; 100 nM", "value": "50.9 ± 0.3 % of control"}, {"measurement": "Panc-1 (pancreas, carcinoma) cell viability (% of control)", "setting": "[12]; 300 nM", "value": "51.2 ± 0.4 % of control"}, {"measurement": "IC50", "setting": "Panc-1 human cell line; PANC-1, 72 h, read-out: IC50 (72 h) [nM]", "value": "1.31 ± 0.286", "unit": "nM"}, {"measurement": "IC50", "setting": "Panc-1 human cell line; PANC-1, 96 h, read-out: IC50 (96 h) [nM]", "value": "< 0.25", "unit": "nM"}]}]}
